Data set [1] relates to SU-DHL-10 cells. Put plainly: Cell cytotoxicity in SU-DHL-10 cell line (CellTiter-Glo). Particulars: Homo sapiens, SU-DHL10; CellTiter-Glo, 48 h; read-out: SU-DHL-10 EC50. Format: cell-based. A general note: In ATP-based viability assays light output follows the ATP content of the culture.
The subject of data set [2] is BL-41 cells. Put plainly: CellTiter-Blue assay, BL-41. Format: cell-based. Particulars: Homo sapiens, BL41 cell line, 72 hours. As to the method: (§1) Assay (d): CellTiter-Blue® Assay
(§2) BL-41, Ramos, Raji and A20 cells (obtained from Cell Services at the Crick Institute; cell type of BL-41, Ramos, Raji: Burkitt's Lymphoma; cell type of A20: murine B cell lymphoma cell line) were grown in RPMI-1640 media in 5% CO2 (supplemented with 10% FBS). The cells were seeded in 96-well plates, 24 h prior to treatment. Cell suspensions were prepared by adjusting the cell density to the appropriate concentration (as stated in the Table 9 below) and 50 μL of the cell suspension was transferred to wells B-G in columns 2-11 of a 96-well plate. […]
(§3) 72 hours later, 20 μl/well CellTiter-Blue® (G8081, Promega) were added to the plates according to the manufacturer's protocol, the plate was incubated at 37° C. for 2 or 3-4 h (A20, Ramos and Raji: 2 h; BL-41 and EL-4: 3-4 h), followed by measuring the absorbance per well at 570 nm using an EnVision plate reader. […] The metabolic activity was calculated as a percentage relative to the positive control. The EC50 values were calculated using GraphPad Prism.
(Resazurin is reduced to fluorescent resorufin, in cell work by metabolically active cells.)

In data set [3] the test system is Raji cells. As to the kind of experiment: CellTiter-Blue assay, Raji. Format: cell-based. The settings on record: Homo sapiens, Raji cell line, 72 hours. As to the method:
as §1, §2, §3

In data set [4] the test system is EL4 cells. Put plainly: CellTiter-Blue assay, EL4. Format: cell-based. Particulars: EL4 cell line, 72 hours. As to the method: as §1
Cell suspensions were prepared by adjusting the cell density to the appropriate concentration (as stated in the Table 10 below) and 50 μL of the cell suspension was transferred to wells B-G in columns 2-11 of a 96-well plate.
For each the BL-41, Ramos, Raji, A20 cell lines and EL4, twenty-four hours later, 50 μL of the growth media for the respective cell line (positive control), a mix of Puromycin and Staurosporine (negative controls, final concentration 10 μg/mL and 1 μM respectively) or different concentrations of each Example compound being tested (dilution factor=3, starting at μM, final concentration in the plate starting from 10 μM) were prepared and added to a well of the 96-well plate. The plate was incubated at 37° C. with 5% CO2 level.
72 hours later, 20 μl/well CellTiter-Blue® (G8081, Promega) were added to the plates according to the manufacturer's protocol, the plate was incubated at 37° C. for 2 or 3-4 h (A20, Ramos and Raji: 2 h; BL-41 and EL-4: 3-4 h), followed by measuring the absorbance per well at 570 nm using an EnVision plate reader. The negative control values were subtracted from every value. The metabolic activity was calculated as a percentage relative to the positive control. The EC50 values were calculated using GraphPad Prism.

Data set [5] concerns Ramos cells. As to the kind of experiment: CellTiter-Blue assay, Ramos. Format: cell-based. The settings on record: Homo sapiens, Ramos cell line, 72 hours. Here is the method:
as §1, §2, §3

The subject of data set [6] is A20 cells. As to the kind of experiment: CellTiter-Blue assay, A20. Format: cell-based, murine. The settings on record: Mus musculus, A20 cell line, 72 hours. Here is the method:
as §1, §2, §3

Data set [7] deals with Human NMT1 (HsNMT1) (Homo sapiens, UniProt P30419). As to the kind of experiment: biochemical.
Data set [8] concerns Plasmodium falciparum 3D7. As to the kind of experiment: SYBR Green assay, Plasmodium falciparum strain 3D7. Format: cell-based. Particulars: P. falciparum strain 3D7, 96 h incubation, read-out: Pf EC50 strain 3D7.
The nature of data set [9]: in vitro. The settings on record: male, Sprague-Dawley, rat, pooled cryopreserved rat hepatocytes, pH 7.4.
The target in data set [10] is Plasmodium vivax (Pv) NMT (Plasmodium vivax (strain Salvador I), UniProt A5K1A2). Put plainly: biochemical.
Data set [11] is described as follows: Rat clearance and bioavailability (iv and oral dosing). The settings on record: male, Sprague-Dawley, plasma, administered as a single compound; for half-life: read-out: Rat iv t1/2 (converted). Format: in vivo.
Data set [12] concerns DOHH-2 tumor cells. Put plainly: Mouse xenograft, subcutaneous DOHH-2 Lymphoma Model. Format: in vivo. The settings on record: compared to vehicle. Here is the method:
Assay (i): Mouse Xenograft Protocol
The in vivo efficacy was assess in a subcutaneous xenograft DOHH-2 Lymphoma Model using Female 6-8 week old CB17/SCID Mice. […] The test compound administration started once the mean tumor size reached approximately 100-150 mm3. Compounds were administered either IP (vehicle 58% Na2HPO4 buffer (10 mM) (pH4.5)+40% PEG400+2% DMSO) or orally (vehicle Na2HPO4 buffer (10 mM) (pH 4.5)+0.2% tween 80). Tumor volumes were measured in two dimensions using a caliper, and the volume expressed in mm3 using the formula: V=(L×W×W)/2, where V is tumor volume, L is tumor length (the longest tumor dimension) and W is tumor width (the longest tumor dimension perpendicular to L).
Mice were dosed with Example 2 orally (50 mg/kg) once a day for 9 consecutive days (FIG. 5a), or Example 2 was dosed intraperitonally (25 mg/kg) in a cycle consisting of administration twice a day for three days followed by a four day no-dosing period (FIG. 5b). The cycle was repeated three times.
Mice were dosed with Example 129 intraperitonally (25 mg/kg) in a cycle consisting of administration twice a day for three days followed by a four day no-dosing period (Figure Sc). The cycle was repeated three times.
The protocol and any amendment(s) or procedures involving the care and use of animals in this study were reviewed and approved by the Institutional Animal Care and Use Committee (IACUC) of CrownBio prior to execution. During the study, the care and use of animals was conducted in accordance with the regulations of the Association for Assessment and Accreditation of Laboratory Animal Care (AAALAC).

Data set [13] deals with BL-41 cells. As to the kind of experiment: Metabolic activity assay (MTS assay) in BL-41 cell line. The settings on record: Homo sapiens, 72 h. Format: cell-based. (Formazan colour is commonly taken as a measure of viable cells.)
In data set [14] the target is Plasmodium falciparum NMT (Plasmodium falciparum (isolate 3D7), UniProt Q8ILW6). Particulars: cited from earlier work.
Data set [15] relates to P. falciparum Pf3D7^0087/N9. Put plainly: Mouse malaria model, NODscidIL2Rγnull mice engrafted with human erythrocytes. The settings on record: for activity compared to untreated control mice: day 7 post-infection.

pEC50, pIC50: −log10 of the molar value. Read-outs that look alike come from different tables or passages of the source.

Plasmodium vivax (Pv) NMT, sequence (A5K1A2 1-410): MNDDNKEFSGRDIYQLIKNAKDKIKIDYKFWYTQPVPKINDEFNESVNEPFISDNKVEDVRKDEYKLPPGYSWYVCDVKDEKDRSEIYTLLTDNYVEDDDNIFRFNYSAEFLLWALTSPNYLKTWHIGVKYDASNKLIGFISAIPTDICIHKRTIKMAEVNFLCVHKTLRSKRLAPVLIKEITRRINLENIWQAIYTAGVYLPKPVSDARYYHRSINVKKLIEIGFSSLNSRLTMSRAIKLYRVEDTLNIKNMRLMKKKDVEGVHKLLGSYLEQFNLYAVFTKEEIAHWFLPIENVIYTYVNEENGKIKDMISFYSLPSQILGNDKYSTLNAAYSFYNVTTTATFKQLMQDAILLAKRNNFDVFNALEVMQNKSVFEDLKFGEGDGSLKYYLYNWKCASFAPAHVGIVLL
Human NMT1 (HsNMT1), sequence (P30419 whole entry, looked up): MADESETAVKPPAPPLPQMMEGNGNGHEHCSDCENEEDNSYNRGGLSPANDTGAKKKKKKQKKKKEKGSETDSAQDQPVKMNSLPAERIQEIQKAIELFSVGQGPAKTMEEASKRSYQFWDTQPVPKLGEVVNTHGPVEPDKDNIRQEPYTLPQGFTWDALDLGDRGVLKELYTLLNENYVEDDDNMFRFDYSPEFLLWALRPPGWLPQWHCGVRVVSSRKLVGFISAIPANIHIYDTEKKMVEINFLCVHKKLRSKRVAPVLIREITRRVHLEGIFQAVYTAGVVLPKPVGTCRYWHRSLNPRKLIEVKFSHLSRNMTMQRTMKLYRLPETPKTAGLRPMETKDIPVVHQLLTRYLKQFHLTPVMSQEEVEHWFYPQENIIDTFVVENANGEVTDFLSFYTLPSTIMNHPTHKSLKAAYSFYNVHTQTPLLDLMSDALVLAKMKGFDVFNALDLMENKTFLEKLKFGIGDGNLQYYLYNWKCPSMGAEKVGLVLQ

By pEC50 is commonly meant the negative decadic logarithm of the EC50, by convention in mol/L. What is called pIC50 is the IC50 on a negative log10 scale, so that one unit is a factor of ten. Low readings indicate a high IC50, high ones a low IC50. In general, bioavailability refers to the share of a dose that reaches the circulation, judged against a reference dose that is usually intravenous. As to `C[C@H]1CN(C)CCN1c1ncc(Cl)c(N2CC(C(=O)NC(C)(C)c3cnc4ccccn34)C2)n1` [Example 2, 1-(5-chloro-2-[(2S)-2,4-dimethylpiperazin-1-yl]pyrimidin-4-yl)-N-(2-{imidazo[1,2-a]pyridin-3-yl}propan-2-yl)azetidine-3-carboxamide], the negative logarithm of the EC50 (pEC50) was 7.29 in data set [1]; 6.25 in data set [2]; 6.25 in [3]; 6.86 in data set [4]; 6.66 in data set [5]; 6.22 in [6]. The pEC50 in data set [8] was 8.62; in data set [13], 6.66. The pIC50 is 8.57 in data set [7] and 8.39 in [10]. The molecule also returned a half-life at 1 µM in data set [9] of 1.52 h. In data set [11] (iv 1 mg/kg), the half-life was 3.5 h. Besides, in [11] (oral 10 mg/kg), the bioavailability was 28%. In addition, the tumour volume entry in data set [12] (intraperitoneally 25 mg/kg twice a day for three days then four day no-dosing, cycle repeated three times) is “significant reduction in tumour volume”; in data set [12] (orally 50 mg/kg once a day for 9 consecutive days), “significant reduction in tumour volume”.

As for `Cc1cnc(CNC(=O)C2CN(c3nc(NCCN(C)C)ncc3Cl)C2)cn1` [PF-03531814, 1-(5-chloro-2-{[2-(dimethylamino)ethyl]amino}pyrimidin-4-yl)-N-[(5-methylpyrazin-2-yl)methyl]azetidine-3-carboxamide], the “selective activity for Plasmodium falciparum NMT over both human NMTs” value in [14] is given as “selective activity”.

With `C[C@@H]1CN(c2ncc(Cl)c(N3CC(C(=O)NC(C)(C)c4cnc5ccccn45)C3)n2)CCN1C` [Example 3, 1-(5-chloro-2-[(3R)-3,4-dimethylpiperazin-1-yl]pyrimidin-4-yl}-N-(2-{imidazo[1,2-a]pyridin-3-yl}propan-2-yl)azetidine-3-carboxamide], the pEC50 in data set [1] was 6.20; in [2] it was 6.66; in data set [3] it was 5.96; in [4], 5.91; in [5] it was 5.64; in [6] it was 5.16. Also, the pEC50 was 7.96 in data set [8] and 6.25 in data set [13]. The same molecule registered a half-life at 1 µM in [9] of 2.05 h. The pIC50 in data set [10] was 8.47. Besides, the half-life in data set [11] (iv 2 mg/kg) is 4.3 h. The bioavailability in [11] (oral 20 mg/kg) stood at 24%. Further, the “activity compared to untreated control mice” value in data set [15] (4×3 mg/kg p.o.) is given as 4%; in data set [15] (4×10 mg/kg p.o.), 37%; in data set [15] (4×30 mg/kg p.o.) it was over 99.9%. For the same molecule, in data set [15] (4×30 mg/kg p.o., day 7), the “mice / smears parasite free” value is reported as “all mice were parasite-free”.
